Assay results taken from PubChem BioAssay AID624258 (Broad Institute, 2012).
Active and inactive are the calls of the source. The rule behind the calls is not given here.

Tested on: S. cerevisiae SKN7-toxicity growth rescue, plate reader
Experiment: Yeast SKN7 toxicity growth rescue counterscreen, Saccharomyces cerevisiae, plate reader, dose confirmatory (AID 624258);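 note: growth read after three days of incubation at 30 °C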

Row | Compound | AC40
1 | COc1ccc([C@H]2[C@H]3C=CC[C@@H](C)[C@@H]3C(=O)N2Cc2ccccc2)cc1Cl | 4.57 µM
2 | COc1ccc2cnn(CCOc3cc(C)ccc3C(C)C)c(=O)c2c1OC | 4.15 µM
3 | O=C(/C=C/c1ccccc1)c1cc(Br)ccc(=O)c1O | 2.08 µM
4 | COc1cccc(-n2nc(C#N)c(Cl)cc2=O)c1 | 2.08 µM
5 | O=C1CC(N2CCCCCC2)C(=O)N1c1ccc2c(c1)OCO2 (centres undefined) | 6.75 µM
6 | Cc1cc(C(=O)N/N=C/c2cc(Br)cc([N+](=O)[O-])c2O)c2ccccc2n1 | 1.27 µM
7 | Oc1ccc(-c2nc3ccccc3s2)c(O)c1 | 0.726 µM
8 | CCOC(=O)CSC1=NC(=O)/C(=C\c2ccc(Cl)cc2)S1 | 6.09 µM
9 | c1c[nH]c(CN2CCN(Cc3ncc[nH]3)CC2)n1 | 1.7 µM
10 | CCc1ccc([C@@H]2CC=C(C(=O)O)[C@H](c3ccc(Cl)cc3)N2S(=O)(=O)c2ccc(C)cc2)cc1 | 4.51 µM
11 | O=C1C=C(Nc2cccnc2)c2ccccc2C1=O | 11 µM
12 | Cn1cnc([N+](=O)[O-])c1S(=O)(=O)Oc1ccc(Cl)cc1 | 1.31 µM
13 | O=C(CSc1ccc(-c2ccccn2)nn1)N1CCCc2ccccc21 | 4.75 µM
14 | Cc1cccc(N2CCN(C(=O)c3c(-c4ccccc4)noc3C)CC2)c1C | 0.414 µM
15 | C/C(=N\NC(=S)NC1CCCCC1)c1c(F)cccc1F | 3.39 µM
16 | CCOC(=O)c1ccc(NC(=O)CC2OCCN(CC)C2=O)cc1 (centres undefined) | 5.81 µM
17 | COc1cccc(/C=N/Nc2ncc(C(F)(F)F)cc2Cl)c1O | 1.11 µM
18 | CC(/C=N/n1c(COc2ccccc2)n[nH]c1=S)=C\c1ccccc1 | > 19.5 µM (inactive)
19 | Cc1cc2[nH]c3c4ccccc4nc(C)c3c2cc1C | 11.2 µM
20 | O=C(NNC(=O)c1cc(Cl)ccc1O)c1cccc(S(=O)(=O)N2CCOCC2)c1 | 3.31 µM
21 | CCC(Oc1ccccc1)C(=O)Nc1ncc([N+](=O)[O-])s1 (centres undefined) | 0.668 µM
22 | O=c1c(-c2cccc3ccccc23)[n+]([O-])c2ccccc2n1O | 12.6 µM
23 | COc1ccc(CNc2ncnc3sccc23)cc1 | 14.6 µM

Row | Compound | AC40
24 | Cc1ccnc(NC(c2ccsc2)c2ccc3ccc(C)nc3c2O)c1 (centres undefined) | 6.7 µM
25 | CC(C)=CCc1c(O)cc(O)c2c1OC(c1ccc(O)cc1)CC2=O (centres undefined) | 12.7 µM
26 | COc1cc2c(cc1OC)C(C)N(C(=O)c1cc3c(=O)oc4ccc(C)cc4c3s1)CC2 (centres undefined) | > 19.5 µM (inactive)
27 | Cc1cccc(C)c1NC(=O)c1nc(S(=O)(=O)Cc2ccccc2)ncc1Cl | 7.57 µM
28 | O=C(Oc1cc2oc(=O)cc(-c3ccccc3)c2cc1Cl)C1CCCCC1 | 8.04 µM
29 | Clc1cccc(-c2noc3ncnc(Nc4ccc5c(c4)OCO5)c23)c1 | 7.06 µM
30 | Cc1ccc(C)c(S(=O)(=O)N2CCN(Cc3ccc(O)c4ncccc34)CC2)c1 | 5.93 µM
31 | CCS(=O)(=O)c1ccc(N=Nc2ccc(O)c3ncccc23)c(OC)c1 | 3.56 µM
32 | Cc1cc(C)c(OCC(=O)Nc2nc(-c3ccccn3)cs2)c(C)c1 | 0.562 µM
33 | COC(=O)C1CCN(C2CC(=O)N(c3cc(C)cc(C)c3)C2=O)CC1 (centres undefined) | 6.63 µM
34 | CSC(=S)N/N=C/c1ccccc1 | 3.19 µM
35 | O=C(Oc1ccc(N(C(=O)c2ccncc2)S(=O)(=O)c2ccc(Cl)cc2)cc1)c1ccncc1 | 0.978 µM
36 | COc1cccc(NC=C2C(=O)OC3(CCCCC3)OC2=O)c1 | 5.08 µM
37 | Cc1ccnc(N2C(=O)c3cccc4c([N+](=O)[O-])ccc(c34)C2=O)c1 | 0.166 µM
38 | Cc1ccc(C2(c3ccc(C)cc3)CC2C(=O)Nc2ccc([N+](=O)[O-])cc2O)cc1 (centres undefined) | 6.78 µM
39 | C[C@H](O)[C@H]1CC[C@H]2[C@@H]3CCC4=CC(=O)CC[C@]4(C)[C@H]3CC[C@]12C | 2.05 µM
40 | Cc1cc(F)ccc1S(=O)(=O)N(C(=O)c1ccncc1)c1ccc(OC(=O)c2ccncc2)cc1 | 2.42 µM
41 | O=c1cnn([C@@H]2O[C@H](CO)[C@@H](O)[C@H]2O)c(=O)[nH]1 | 0.882 µM
42 | O=C(Oc1cccc(NC(=O)c2ccccc2Cl)c1)c1ccc([N+](=O)[O-])cc1 | 14.1 µM
43 | Cc1ccc(-c2nc3ccc(Cl)cc3c(=O)n2O)cc1 | 0.914 µM
44 | CC1=CC(=O)C(C(C)C)=C/C1=N/OC(=O)c1cccc([N+](=O)[O-])c1 | 1.05 µM
45 | CC(C)(C)n1nc(-c2ccc(Cl)cc2)c2c(N)ncnc21 | 12.6 µM
46 | C[C@@]12C(=O)Nc3ccc(F)cc3C(=O)N1[C@H]1c3ccccc3OC[C@@H]1[C@@H]2c1ccccc1 | 11.5 µM

Row | Compound | AC40
47 | Cc1noc2ncnc(SCc3ccc(C(F)(F)F)cc3)c12 | 0.965 µM
48 | O=[N+]([O-])c1cc2oc3c(c2c(C=NCc2ccccc2)c1O)CCCC3 | 1.38 µM
49 | CC(C)(C)c1ccc(Cn2ccc(-c3ccc4c(c3)OCO4)n2)cc1 | 8.82 µM
50 | O=C(COC(=O)c1ccc([N+](=O)[O-])o1)NC1CCCc2ccccc21 (centres undefined) | 2.34 µM
51 | Cc1ccc(CNC(=O)CSc2ccc(-c3ccccn3)nn2)cc1 | 2.75 µM
52 | Cc1nn(-c2nnc(NC3CCCCC3)nn2)c(C)c1Br | 6.48 µM
53 | O=C(NCC1CC1(Cl)Cl)Nc1ccc(Cl)c(Cl)c1 (centres undefined) | > 6.8 µM (inactive)
54 | Cc1ccc(-c2cc(-c3ccc(C)cc3)[n+](-c3ccccc3)c(-c3ccc(C)cc3)c2)cc1 | 4.13 µM
55 | COc1ccccc1N(C)S(=O)(=O)c1ccc(Cl)c(C(=O)NNC(=O)c2ccccc2O)c1 | 1.95 µM
56 | COc1ccc2c(c1)OC[C@H]1[C@H]2N2C(=O)c3cc(OC)ccc3NC(=O)[C@@]2(C)[C@H]1c1ccccc1 | 9.31 µM
57 | Cc1cc([N+](=O)[O-])c(NC2CCCCC2)c([N+](=O)[O-])c1 | 10.1 µM
58 | COc1ccc(CSCC(=O)Nc2ccc(S(=O)(=O)N3CCCCCC3)cc2)cc1 | 6.93 µM
59 | Oc1ccc(Cl)cc1CNc1cccc2cccnc12 | 0.156 µM
60 | O=c1[nH][nH]cc1C=Nc1ccccc1O | 2.18 µM
61 | CCOC(=O)c1ccc(N2C(=O)CC(N(C)CCc3ccc(OC)c(OC)c3)C2=O)cc1 (centres undefined) | 4.82 µM
62 | Oc1ccccc1N=Cc1ccc[nH]1 | > 0.75 µM (inactive)
63 | Cc1c(C(=O)NCCSCc2cccc(C(F)(F)F)c2)cnn1-c1ccc(Cl)cc1 | 6.53 µM
64 | Cc1cccc(N2C(=O)C(Oc3ccc(Cl)cc3Cl)C2C=O)c1C (centres undefined) | 1.98 µM
65 | CC1S/C(=C(\C#N)C(=O)NCc2ccco2)N(Cc2ccco2)C1=O (centres undefined) | > 19.5 µM (inactive)
66 | CCNc1nc(N)nc(-c2cc(Cl)ccc2O)n1 | 2.17 µM
67 | CCC(=O)NC(c1cc(Cl)c2cccnc2c1O)C(C)C (centres undefined) | 3.15 µM
68 | CCOc1ccc(/C=C2/SC(=O)NC2=S)cc1 | 1.24 µM
69 | COC(=O)c1cc(Sc2cccc(Cl)c2Cl)ccn1 | 14.7 µM

Row | Compound | AC40
70 | Cc1ccc(-n2nnnc2C(Cl)c2nnnn2-c2ccc(C)cc2)cc1 | 0.497 µM
71 | CC1Cc2ccccc2N1c1ncnc(N)c1[N+](=O)[O-] (centres undefined) | 7.27 µM
72 | O=C(N/N=C/c1c(O)n(Cc2ccccc2)c(=O)c2ccccc12)c1cccnc1 | 1.01 µM
73 | Cc1n[nH]c(C)c1N=Nc1ccc(Br)cc1 | 1.76 µM
74 | O=C(COC(=O)c1ccc([N+](=O)[O-])o1)NCc1ccc(F)cc1 | 6.69 µM
75 | COc1cccc(CNC(=O)COc2ccc(C(=O)c3ccccc3)cc2)c1 | 18 µM
76 | CC1CCCCC1NC(=O)/C(C#N)=C/c1ccccc1F (centres undefined) | 2.04 µM
77 | Cc1nc2ccc(NC(=O)COc3cccc(F)c3)cc2s1 | 1.43 µM
78 | NNC(=O)c1ccc2nc(-c3ccc(Br)cc3)cn2c1 | 13.1 µM
79 | Cc1ccc(NC(=O)CN(C)C(=O)c2cccnc2Nc2cccc(C(F)(F)F)c2)cc1 | 5.69 µM
80 | Cc1nn2c(-c3ccncc3)nnc2c2ccccc12 | > 6.8 µM (inactive)
81 | C=CS(=O)(=O)c1ccc(Oc2ccc(S(=O)(=O)C=C)cc2)cc1 | 7.95 µM
82 | COc1ccc2c(c1)[C@H]1[C@H](CO2)[C@H](c2ccccc2)[C@]2(C)C(=O)Nc3ccc(Cl)cc3C(=O)N12 | 17.2 µM
83 | CCCCCCCCCCOC(=O)Cn1c(COc2ccc(OC)cc2)[n+](C)c2ccccc21 | 3.33 µM
84 | COc1ccc(S(=O)(=O)N(C(=O)c2ccncc2)c2ccc(OC(=O)c3ccncc3)cc2)cc1 | 1.88 µM
85 | O=C1c2ccccc2C(=O)c2c1oc(C(F)(F)F)c2C(=O)c1ccccc1 | 2.6 µM
86 | COc1cccc2c1C(=O)c1c(O)c3c(c(O)c1C2=O)CC(O)(C(C)=O)CC3OC1CC(N(C)C)C(O)C(C)O1 (centres undefined) | 2.85 µM
87 | COc1cccc(CNC(=O)CSc2ccc(-c3ccccn3)nn2)c1 | 16.4 µM
88 | O=[N+]([O-])c1ccc(N=Nc2ncc[nH]2)cc1 | 6.08 µM
89 | Cc1ccc(NC2(c3nnnn3-c3c(C)cccc3C)CCCCC2)cc1 | > 19.5 µM (inactive)
90 | CCc1ccccc1OCC(=O)Nc1nc(-c2cccnc2)cs1 | 1.23 µM
91 | CC(=O)c1c(C)oc2c1C(=O)c1ccccc1C2=O | 1.92 µM
92 | Cc1cccc(NS(=O)(=O)c2ccc(-c3cnc(C4CC4)o3)cc2)c1C | 12.6 µM

Row | Compound | AC40
93 | Cc1ccc(C(C[N+](=O)[O-])c2c(N)n(C)c(=O)n(C)c2=O)cc1 (centres undefined) | 4.96 µM
94 | COc1cc2c(c(OC)c1OC)-c1ccc(O)c(=O)cc1[C@@H](N)CC2 | 0.936 µM
95 | c1ccc2c(-c3c[nH]c4ccccc34)c3ccccc3nc2c1 | 5.73 µM
96 | O=c1c(O)cccc2cc(O)c(O)c(O)c12 | 2.27 µM
97 | Cc1cccc(C)c1N=Nc1c(C)cc(O)cc1C | 1.12 µM
98 | O=c1c2cc(Cl)ccc2oc2nc3n(c(=O)c12)CCCS3 | 19.1 µM
99 | Cc1ccc(CNC(=O)C2COc3ccccc3O2)cc1 (centres undefined) | 17.7 µM
100 | CC(C)CN=Cc1c(O)c([N+](=O)[O-])cc2oc3c(c12)CCCC3 | 1.25 µM
101 | COc1ccc2c(n1)Sc1nc3ccccc3nc1N2 | 0.649 µM
102 | CCCCC(=O)NC(c1ccc(OC)c(OC)c1)c1ccc2cccnc2c1O (centres undefined) | 1 µM
103 | O=C(O)c1ccc(N/N=C/C=C/c2ccccc2)cc1 | 1.11 µM
104 | CCCCC(=O)NC(c1ccc(N(C)C)cc1)c1ccc2cccnc2c1O (centres undefined) | 0.754 µM
105 | O=S(=O)(CCSc1nc2ccccc2s1)c1nc2ccccc2s1 | 2.43 µM
106 | COc1ccc2c(c1)c1nnc(SC)nc1n2C | 2 µM
107 | COc1ccccc1C1CCN(c2cc(O)ccc2[N+](=O)[O-])CC1 | 2.83 µM
108 | O=C(N/N=C/c1cc(Br)ccc1O)c1ccccc1Cl | 0.659 µM
109 | CC1CCc2sc(-c3n[nH]c(=S)o3)cc2C1 (centres undefined) | 0.663 µM
110 | O=C(N/N=C(\c1ccccc1)c1cccnc1)c1cccc(F)c1 | 1.12 µM
111 | S=C(NCCCc1ccccc1)Nc1ccccc1Cl | 5.29 µM
112 | O=C(Nc1cccnc1)c1ccc2ccccc2c1O | 0.908 µM
113 | COc1ccccc1-c1cc(C(F)(F)F)nc(S(C)(=O)=O)n1 | 1.71 µM
114 | O=C1c2ccccc2NC(c2ccc(-c3cccc([N+](=O)[O-])c3)o2)N1O (centres undefined) | 4.74 µM
